According to US9040067B2, “Disinfecting and antimicrobial compositions” (priority 2005, dated 2015):

Tests used:
Type in all cases: cell-based
[1] = tested on: Saccharomyces cerevisiae; assay: MIC and MLC against yeast in Sab. broth; settings: for Lethal (MLC) Concentration 1% / Inhibitory (MIC) Concentration 1%: 1% ester; for Lethal (MLC) Concentration 1.5% / Inhibitory (MIC) Concentration 1.5%: 1.5% ester; for Lethal (MLC) Concentration 2% / Inhibitory (MIC) Concentration 2%: 2% ester; for Lethal (MLC) Concentration 3% / Inhibitory (MIC) Concentration 3%: 3% ester; for Lethal (MLC) Concentration 4% / Inhibitory (MIC) Concentration 4%: 4% ester; for Lethal (MLC) Concentration 1%: key: + = growth (inactive); − = no growth (active); for Lethal (MLC) Concentration 1.5%: key: + = growth (inactive); − = no growth (active); for Lethal (MLC) Concentration 2%: key: + = growth (inactive); − = no growth (active); for Lethal (MLC) Concentration 3%: key: + = growth (inactive); − = no growth (active); for Lethal (MLC) Concentration 4%: key: + = growth (inactive); − = no growth (active)
Description: A 0.1 ml of 1/100 dilution of 48 hr old culture of S. cerevisiae was used as inoculum. The test was performed using Sab. broth. The tubes were incubated at room temperature 25° C. The test was read after 48 hrs.

[2] = tested on: Pseudomonas aeruginosa; assay: MIC/MLC in brain heart infusion broth; settings: for MIC, Concentration of Lactic Esters 0.5%: 0.5% ester; for MIC, Concentration of Lactic Esters 1%: 1% ester; for MIC, Concentration of Lactic Esters 2%: 2% ester; for MIC, Concentration of Lactic Esters 3%: 3% ester; for MIC, Concentration of Lactic Esters 4%: 4% ester; for MIC, Concentration of Lactic Esters 5%: 5% ester; for all read-outs here: key: + = growth (inactive); − = no growth (active)
Description: (§1) The tests were carried out in 10 ml of brain heart infusion broth. The esters were serially diluted in brain heart infusion broth of samples of, 0.1, 0.2, 0.3, 0.4 and 0.5/10 ml and challenged with 0.1 ml of 1/100 dilution of 24 hr old brain heart infusion bacterial culture. The lowest concentration determined the minimum inhibitory concentration (MIC). The samples were observed after 48 hrs at 37° C. A loopful from tubes without growth were plated on BHI agar plates and observed for growth for 24 to 48 hrs at 37° C. The samples with the lowest concentration of the ester without bacterial growth on the plates represented the minimum lethal concentration (MLC).
(§2) A series of samples of (a) methyl lactate, (b) ethyl lactate and (c) butyl lactate, alone, and in admixture with varying amounts of decyl lactate and sodium dodecyl sulfates were used to test minimum inhibitory activity (MIC) by the method described in Example II, against the cultures of E. coli 0157 H7, Listeria monocytogenes, Staphylococcus aureus, Salmonella typhi, and Pseudomonas aeruginosa.

[3] = tested on: Listeria monocytogenes; assay: MIC/MLC in brain heart infusion broth; note: key: + = growth (inactive); − = no growth (active)
Description: as §1, §2

SMILES: CCCCOC(=O)C(C)O (stereo not shown) [Butyl lactate, butyl lactate]
- Lethal (MLC) Concentration 1% [1]: −
- Inhibitory (MIC) Concentration 1% ([1]; 48 hrs, 25° C): −
- Inhibitory (MIC) Concentration 1% ([1]; Sodium lauryl sulfate 200 ppm): −
- Lethal (MLC) Concentration 1% ([1]; Sodium lauryl sulfate 200 ppm): −
- Lethal (MLC) Concentration 1.5% [1]: −
- Inhibitory (MIC) Concentration 1.5% ([1]; 48 hrs, 25° C): −
- Inhibitory (MIC) Concentration 1.5% ([1]; Sodium lauryl sulfate 200 ppm): −
- Lethal (MLC) Concentration 1.5% ([1]; Sodium lauryl sulfate 200 ppm): −
- Lethal (MLC) Concentration 2% [1]: −
- Inhibitory (MIC) Concentration 2% ([1]; 48 hrs, 25° C): −
- Inhibitory (MIC) Concentration 2% ([1]; Sodium lauryl sulfate 200 ppm): −
- Lethal (MLC) Concentration 2% ([1]; Sodium lauryl sulfate 200 ppm): −
- Lethal (MLC) Concentration 3% [1]: −
- Inhibitory (MIC) Concentration 3% ([1]; 48 hrs, 25° C): −
- Inhibitory (MIC) Concentration 3% ([1]; Sodium lauryl sulfate 200 ppm): −
- Lethal (MLC) Concentration 3% ([1]; Sodium lauryl sulfate 200 ppm): −
- Lethal (MLC) Concentration 4% [1]: −
- Inhibitory (MIC) Concentration 4% ([1]; 48 hrs, 25° C): −
- Inhibitory (MIC) Concentration 4% ([1]; Sodium lauryl sulfate 200 ppm): −
- Lethal (MLC) Concentration 4% ([1]; Sodium lauryl sulfate 200 ppm): −
- MLC, Concentration of Butyl lactate 0.5% ([2]; 0.5%): +
- MIC, Concentration of Lactic Esters 0.5% ([2]; SDS 0.0 ppm): +
- MIC, Concentration of Lactic Esters 0.5% ([2]; SDS 50 ppm): −
- MIC, Concentration of Lactic Esters 0.5% ([2]; SDS 100 ppm): −
- MIC, Concentration of Lactic Esters 0.5% ([2]; SDS 200 ppm): −
- MLC, Concentration of Butyl lactate 1% ([2]; 1%): +
- MIC, Concentration of Lactic Esters 1% ([2]; SDS 0.0 ppm): +
- MIC, Concentration of Lactic Esters 1% ([2]; SDS 50 ppm): −
- MIC, Concentration of Lactic Esters 1% ([2]; SDS 100 ppm): −
- MIC, Concentration of Lactic Esters 1% ([2]; SDS 200 ppm): −
- MLC, Concentration of Butyl lactate 2% ([2]; 2%): +
- MIC, Concentration of Lactic Esters 2% ([2]; SDS 0.0 ppm): −
- MIC, Concentration of Lactic Esters 2% ([2]; SDS 50 ppm): −
- MIC, Concentration of Lactic Esters 2% ([2]; SDS 100 ppm): −
- MIC, Concentration of Lactic Esters 2% ([2]; SDS 200 ppm): −
- MLC, Concentration of Butyl lactate 3% ([2]; 3%): −
- MIC, Concentration of Lactic Esters 3% ([2]; SDS 0.0 ppm): −
- MIC, Concentration of Lactic Esters 3% ([2]; SDS 50 ppm): −
- MIC, Concentration of Lactic Esters 3% ([2]; SDS 100 ppm): −
- MIC, Concentration of Lactic Esters 3% ([2]; SDS 200 ppm): −
- MLC, Concentration of Butyl lactate 4% ([2]; 4%): −
- MIC, Concentration of Lactic Esters 4% ([2]; SDS 0.0 ppm): −
- MIC, Concentration of Lactic Esters 4% ([2]; SDS 50 ppm): −
- MIC, Concentration of Lactic Esters 4% ([2]; SDS 100 ppm): −
- MIC, Concentration of Lactic Esters 4% ([2]; SDS 200 ppm): −
- MLC, Concentration of Butyl lactate 5% ([2]; 5%): −
- MIC, Concentration of Lactic Esters 5% ([2]; SDS 0.0 ppm): −
- MIC, Concentration of Lactic Esters 5% ([2]; SDS 50 ppm): −
- MIC, Concentration of Lactic Esters 5% ([2]; SDS 100 ppm): −
- MIC, Concentration of Lactic Esters 5% ([2]; SDS 200 ppm): −
- MLC, Concentration of Butyl lactate 0.5% ([3]; 0.5%): +
- MLC, Concentration of Butyl lactate 1% ([3]; 1%): +
- MLC, Concentration of Butyl lactate 2% ([3]; 2%): −
- MLC, Concentration of Butyl lactate 3% ([3]; 3%): −
- MLC, Concentration of Butyl lactate 4% ([3]; 4%): −
- MLC, Concentration of Butyl lactate 5% ([3]; 5%): −

SMILES: COC(=O)C(C)O (stereo not shown) [Methyl lactate, methyl lactate]
- Lethal (MLC) Concentration 1% [1]: +
- Inhibitory (MIC) Concentration 1% ([1]; 48 hrs, 25° C): +
- Inhibitory (MIC) Concentration 1% ([1]; Sodium lauryl sulfate 200 ppm): +
- Lethal (MLC) Concentration 1% ([1]; Sodium lauryl sulfate 200 ppm): +
- Lethal (MLC) Concentration 1.5% [1]: +
- Inhibitory (MIC) Concentration 1.5% ([1]; 48 hrs, 25° C): +
- Inhibitory (MIC) Concentration 1.5% ([1]; Sodium lauryl sulfate 200 ppm): +
- Lethal (MLC) Concentration 1.5% ([1]; Sodium lauryl sulfate 200 ppm): +
- Lethal (MLC) Concentration 2% [1]: +
- Inhibitory (MIC) Concentration 2% ([1]; 48 hrs, 25° C): +
- Inhibitory (MIC) Concentration 2% ([1]; Sodium lauryl sulfate 200 ppm): +
- Lethal (MLC) Concentration 2% ([1]; Sodium lauryl sulfate 200 ppm): +
- Lethal (MLC) Concentration 3% [1]: −
- Inhibitory (MIC) Concentration 3% ([1]; 48 hrs, 25° C): −
- Inhibitory (MIC) Concentration 3% ([1]; Sodium lauryl sulfate 200 ppm): −
- Lethal (MLC) Concentration 3% ([1]; Sodium lauryl sulfate 200 ppm): −
- Lethal (MLC) Concentration 4% [1]: −
- Inhibitory (MIC) Concentration 4% ([1]; 48 hrs, 25° C): −
- Inhibitory (MIC) Concentration 4% ([1]; Sodium lauryl sulfate 200 ppm): −
- Lethal (MLC) Concentration 4% ([1]; Sodium lauryl sulfate 200 ppm): −
- MIC, Concentration of Lactic Esters 0.5% ([2]; SDS 0.0 ppm): +
- MIC, Concentration of Lactic Esters 0.5% ([2]; SDS 50 ppm): −
- MIC, Concentration of Lactic Esters 0.5% ([2]; SDS 100 ppm): −
- MIC, Concentration of Lactic Esters 0.5% ([2]; SDS 200 ppm): −
- MIC, Concentration of Lactic Esters 1% ([2]; SDS 0.0 ppm): +
- MIC, Concentration of Lactic Esters 1% ([2]; SDS 50 ppm): −
- MIC, Concentration of Lactic Esters 1% ([2]; SDS 100 ppm): −
- MIC, Concentration of Lactic Esters 1% ([2]; SDS 200 ppm): −
- MIC, Concentration of Lactic Esters 2% ([2]; SDS 0.0 ppm): −
- MIC, Concentration of Lactic Esters 2% ([2]; SDS 50 ppm): −
- MIC, Concentration of Lactic Esters 2% ([2]; SDS 100 ppm): −
- MIC, Concentration of Lactic Esters 2% ([2]; SDS 200 ppm): −
- MIC, Concentration of Lactic Esters 3% ([2]; SDS 0.0 ppm): −
- MIC, Concentration of Lactic Esters 3% ([2]; SDS 50 ppm): −
- MIC, Concentration of Lactic Esters 3% ([2]; SDS 100 ppm): −
- MIC, Concentration of Lactic Esters 3% ([2]; SDS 200 ppm): −
- MIC, Concentration of Lactic Esters 4% ([2]; SDS 0.0 ppm): −
- MIC, Concentration of Lactic Esters 4% ([2]; SDS 50 ppm): −
- MIC, Concentration of Lactic Esters 4% ([2]; SDS 100 ppm): −
- MIC, Concentration of Lactic Esters 4% ([2]; SDS 200 ppm): −
- MIC, Concentration of Lactic Esters 5% ([2]; SDS 0.0 ppm): −
- MIC, Concentration of Lactic Esters 5% ([2]; SDS 50 ppm): −
- MIC, Concentration of Lactic Esters 5% ([2]; SDS 100 ppm): −
- MIC, Concentration of Lactic Esters 5% ([2]; SDS 200 ppm): −
